Literature values, collected in US7906537B2, “Substituted p-diaminobenzene derivatives” (priority 2003, dated 2011).

Legend:
[1] = system: animal models of ethanol withdrawal syndrome; conditions: in vivo
[2] = system: electrically induced seizures, seizures induced chemically by pentylenetetrazole, picrotoxin and NMDA, DBA/2 mouse; conditions: after oral and intraperitoneal administration in rats and mice
amygdala kindling model = conditions: in vivo
epileptic patients = conditions: clinical trials
[3] = system: K(+) current in neuronal cells
[4] = system: animal models of neuropathic pain; conditions: in vivo
[5] = system: kainic acid-induced status epilepticus; conditions: following kainic acid-induced status epilepticus in the rat
hippocampal kindling = conditions: rat
[6] = system: animal models of anxiety-like behaviour; conditions: in vivo

| Structure (SMILES) | effect in animal models of ethanol withdrawal syndrome [1] | activity in a range of anticonvulsant tests [2] | activity in the amygdala kindling model of complex partial seizures (amygdala kindling model) | incidence of seizures in epileptic patients (epileptic patients) | activation of K(+) current [3] | effect in animal models of neuropathic pain [4] | limbic neurodegeneration and expression of markers of apoptosis [5] | progression of hippocampal kindling (hippocampal kindling) | activity in animal models of anxiety-like behaviour [6] |
| --- | --- | --- | --- | --- | --- | --- | --- | --- | --- |
| NCC1(CC(=O)O)CCCCC1 [gabapentin] | very effective | – | – | – | – | – | – | – | – |
| CCOC(=O)Nc1ccc(NCc2ccc(F)cc2)cc1N [Retigabine, N-(2-amino-4-(4-fluorobenzylamino)-phenyl)carbamic acid ethyl ester] | – | active | active | effectiveness in reducing the incidence of seizures | activate a K(+) current | beneficial | prevent limbic neurodegeneration and the expression of markers of apoptosis | delay the progression of hippocampal kindling | active |
